Measured values: ChEMBL document CHEMBL4811321, “Synthesis and biological evaluation of 3,4-dihydro-1H-[1,4] oxazepino [6,5,4-hi] indol-1-ones and 4,6-dihydrooxepino [5,4,3-cd] indol-1(3H)-ones as Mycobacterium tuberculosis inhibitors” (Bioorg Med Chem, 2021)
Converted amounts (≈) assume the structure as drawn.

Molecular target: not listed separately
Assay: Displacement of UDP-fluorescein from Mycobacterium tuberculosis UDP-galactopyranose mutase by fluorescence polarization assay
Conditions: not given

In order of rising Kd:
1. COc1ccc(C#C/C=C2\Cn3cc(I)c4cccc(c43)C(=O)O2)cc1  72.9 µM
2. O=C1O/C(=C/I)Cn2cc(I)c3cccc1c32  138 µM

Tested on: Mycobacterium tuberculosis
Assay: Antitubercular activity against Mycobacterium tuberculosis mc2 6230 assessed as inhibition of bacterial growth incubated for 7 days by microtiter plate assay
Format: functional
Conditions: mc2 6230, 168 h, time 7 day

First: O=C1OC(Cn2cc(CCBr)nn2)Cc2cn(Cc3ccccc3)c3cccc1c23 (stereo not given)
Second: CCCCc1cn(CC2Cc3cn(Cc4ccccc4)c4cccc(c34)C(=O)O2)nn1 (stereo not given)
The MIC of the first is lower: 25 µg/mL (≈ 53.7 µM) for the first, > 100 µg/mL for the second.

First: CC(C)CCC#C/C=C1\Cn2cc(I)c3cccc(c32)C(=O)O1
Second: CCCCC#C/C=C1\Cn2cc(I)c3cccc(c32)C(=O)O1
The MIC of the first is 2-fold lower: 0.2 µg/mL (≈ 0.477 µM) for the first, 0.4 µg/mL (≈ 0.987 µM) for the second.

`O=C1OC(Cn2cc(-c3ccc(F)cc3F)nn2)Cc2cn(Cc3ccccc3)c3cccc1c23` (stereo not given) and `O=C1OC(Cn2cc(-c3ccccc3F)nn2)Cc2cn(Cc3ccccc3)c3cccc1c23` (stereo not given) cannot be ordered by MIC: > 100 µg/mL for the first, > 100 µg/mL for the second.

`O=C1OC(Cn2cc(-c3ccccc3)nn2)Cc2cn(Cc3ccccc3)c3cccc1c23` (stereo not given) and `COc1ccccc1-c1cn(CC2Cc3cn(Cc4ccccc4)c4cccc(c34)C(=O)O2)nn1` (stereo not given) cannot be ordered by MIC: > 100 µg/mL for the first, > 100 µg/mL for the second.

`CCOC(=O)CCCc1cn(CC2Cc3cn(Cc4ccccc4)c4cccc(c34)C(=O)O2)nn1` (stereo not given) and `CCCCCCCc1cn(CC2Cc3cn(Cc4ccccc4)c4cccc(c34)C(=O)O2)nn1` (stereo not given) cannot be ordered by MIC: > 100 µg/mL for the first, > 100 µg/mL for the second.

`CC(C)CCc1cn(CC2Cc3cn(Cc4ccccc4)c4cccc(c34)C(=O)O2)nn1` (stereo not given) and `CN(Cc1cn(CC2Cc3cn(Cc4ccccc4)c4cccc(c34)C(=O)O2)nn1)S(C)(=O)=O` (stereo not given) cannot be ordered by MIC: > 100 µg/mL for the first, > 100 µg/mL for the second.

First: O=C1O/C(=C/C#Cc2ccccc2)Cn2cc(I)c3cccc1c32
Second: COc1ccc(C#C/C=C2\Cn3cc(I)c4cccc(c43)C(=O)O2)cc1
The MIC of the first is 2-fold higher: 0.4 µg/mL (≈ 0.941 µM) for the first, 0.2 µg/mL (≈ 0.439 µM) for the second.

`O=C1OC(Cn2cc(C3CC3)nn2)Cc2cn(Cc3ccccc3)c3cccc1c23` (stereo not given) and `COc1ccc(-c2cn(CC3Cc4cn(Cc5ccccc5)c5cccc(c45)C(=O)O3)nn2)cc1` (stereo not given) cannot be ordered by MIC: > 100 µg/mL for the first, > 100 µg/mL for the second.

First: CCOC(=O)CCCC#C/C=C1\Cn2cc(I)c3cccc(c32)C(=O)O1
Second: O=C1O/C(=C/I)Cn2cc(I)c3cccc1c32
The MIC of the first is 4-fold lower: 0.4 µg/mL (≈ 0.863 µM) for the first, 1.6 µg/mL (≈ 3.55 µM) for the second.

First: O=C1OC(CI)Cc2cn(Cc3ccccc3)c3cccc1c23 (stereo not given)
Second: O=C1OC(CSc2ccccc2)Cc2cn(Cc3ccccc3)c3cccc1c23 (stereo not given)
The MIC of the first is lower: 12.5 µg/mL (≈ 30 µM) for the first, > 100 µg/mL for the second.

`COc1ccc(/C=C2\Cn3cc(I)c4cccc(c43)C(=O)O2)cc1` and `COc1cccc(SCC2Cc3cn(Cc4ccccc4)c4cccc(c34)C(=O)O2)c1` (stereo not given) cannot be ordered by MIC: > 100 µg/mL for the first, > 100 µg/mL for the second.

In the case of `COc1ccccc1SCC1Cc2cn(Cc3ccccc3)c3cccc(c23)C(=O)O1` (stereo not given), the MIC is reported as > 100 µg/mL.
